Assay results: patent US20240124436A1 (priority 2019, published 2024)
Like-named read-outs stand apart in the source and are kept apart here.

System: pathogens of rice blast
Type: cell-based
Conditions: 25° C., 6 days, elongation length of hyphae

`COc1nc(-c2nccs2)nc(F)c1C(F)(F)F` [Example 3, 6-fluoro-4-methoxy-2-(2-thiazolyl)-5-(trifluoromethyl)pyrimidine] was tested, and the Control value (test solution 1000 ppm, 1,000 μl on oatmeal culture medium) was 68 and the Control value (test solution 2000 ppm, 1,000 μl on oatmeal culture medium) was 100.
